# Test results: EP4218772A1, “LITHIUM SALT FOR USE IN TREATMENT OF PULMONARY HYPERTENSION” (Charité - Universitätsmedizin Berlin, priority 2022, dated 2023)
# Test system: C57BL/6-mice
# Protocol: Animal experiments: • General: 10-12 week old male C57BL/6-mice were kept at normoxia or in a hypoxia chamber at 10% O2 for five weeks and got either regular chow or chow containing 0.2% Li2CO3. • IFT88 knock-out in mice: IFT88-flox mice were bred with Cdh5-cre mice. 2 weeks prior to treatment, IFT88fl/fl, Cdh5-cre+ and Cdh-cre- mice were intraperitoneally injected with tamoxifen (75 mg/kg body weight) to induce knock-out. • Echocardiography: Mice were anesthetized with initially 3% isoflurane. The animals are fixed in dorsal position and their thoracal hair was removed with depilatory cream. Pulmonary artery flow, tricuspid valve movement and other echocardiographic parameters were assessed with the echo device Vevo3100. • RVSP measurement: After five weeks, the mice got an intraperitoneal injection of ketamin (200 mg/kg bodyweight (bw)) and xylazine (10 mg/kg bw). A 2F microtip millar catheter was advanced into the right ventricle via the jugularis vein to measure right ventricle systolic pressure (RVSP).
substance,measurement,setting,value
lithium carbonate [Li2CO3],right ventricular systolic blood pressure,"chow containing 0.2% Li2CO3, hypoxia 10% O2 for five weeks",reduced the increase
same,development of a PH under chronic hypoxia,"food with 0.2% Li2CO3, 10% O2 for 5 weeks, Fig. 1D",prevents the development of a PH
